In US10961200B2, “Small molecule inhibitors of lactate dehydrogenase and methods of use thereof” (THE UNITED STATES OF AMERICA, AS REPRESENTED BY THE …, priority 2014, dated 2021):

Biological target: Human LDHA (Homo sapiens (Human), UniProt P00338)
Experiment: human LDHA primary biochemical assay (resazurin/diaphorase coupled, fluorescence)
Details: LDHA inhibitory activity, activity level based on IC50 (Table 7)
Source text: Test compounds were placed in a Greiner Bio-One (Monroe, N.C.) 1536-well black solid bottom assay plate. 200 millimolar (mM) Tris HCl, pH 7.4, 100 micromolar […] EDTA and 0.01% TWEEN-20™, final concentration, was used as the assay buffer. The LDHA reagent was 2 nanomolar (nM) Human LDHA (Meridian Life Science, Inc., Memphis, Tenn.), final concentration, in assay buffer.

`N[S+](=O)([O-])c1ccc(Cc2c(CC3CC3)nn(-c3nc(C(=O)O)cs3)c2-c2cccc(OCc3ccccc3)c2)cc1` [Compound 342] and `COc1cccc(-c2cccc(-c3c(Cc4ccc([S+](N)(=O)[O-])c(F)c4)c(C4CC4)nn3-c3nc(C(=O)O)cs3)c2)c1` [Compound 352] fall in the same range of IC50: 1000 to 57000 nM for the first, 1000 to 57000 nM for the second.

First: CCOC(=O)c1csc(-n2nc(-c3ccc(F)c(-c4ccc(C)cc4)c3)c(Cc3ccc(S(N)(=O)=O)c(F)c3)c2CC2CC2)n1 [Compound 343]
Second: Cc1ccc(-c2cc(-c3nn(-c4nc(C(=O)O)cs4)c(CC4CC4)c3Cc3ccc(S(N)(=O)=O)c(F)c3)ccc2F)cc1 [Compound 362]
The IC50 of the first is higher: 1000 to 57000 nM for the first, < 100 nM for the second.

Going from `CCOC(=O)c1csc(-n2nc(-c3cccc(-c4ccc(C)cc4)c3)c(Cc3ccc(S(N)(=O)=O)cc3F)c2CC2CC2)n1` [Compound 344] to `Cc1ccc(-c2cccc(-c3nn(-c4nc(C(=O)O)cs4)c(CC4CC4)c3Cc3ccc(S(N)(=O)=O)cc3F)c2)cc1` [Compound 363], the IC50 falls from > 57000 nM to < 100 nM.

Compared with `CCOC(=O)c1csc(-n2nc(-c3ccc(F)c(-c4ccc(F)cc4)c3)c(Cc3ccc(S(N)(=O)=O)cc3F)c2CC2CC2)n1` [Compound 345], `N[S+](=O)([O-])c1ccc(Cc2c(-c3ccc(F)c(-c4ccc(F)cc4)c3)nn(-c3nc(C(=O)O)cs3)c2CC2CC2)c(F)c1` [Compound 364] is lower in IC50: 1000 to 57000 nM for the first, < 100 nM for the second. The second is the more potent here.

`Cc1ccc(-c2cccc(-c3c(Cc4ccc([S+](N)(=O)[O-])c(F)c4)c(C4CC4)nn3-c3nc(C(=O)O)cs3)c2)cc1` [Compound 346] and `N[S+](=O)([O-])c1ccc(Cc2c(C3CC3)nn(-c3nc(C(=O)O)cs3)c2-c2cccc(-c3ccc(F)cc3)c2)cc1F` [Compound 348] fall in the same range of IC50: 1000 to 57000 nM for the first, 1000 to 57000 nM for the second.

`Cc1ccc(-c2cccc(-c3nn(-c4nc(C(=O)O)cs4)c(C4CC4)c3Cc3ccc(S(N)(=O)=O)c(F)c3)c2)cc1` [Compound 347] and `NS(=O)(=O)c1ccc(Cc2c(-c3cccc(-c4ccc(F)cc4)c3)nn(-c3nc(C(=O)O)cs3)c2C2CC2)cc1F` [Compound 349] cannot be ordered by IC50: < 100 nM for the first, < 100 nM for the second.

`N[S+](=O)([O-])c1ccc(Cc2c(C3CC3)nn(-c3nc(C(=O)O)cs3)c2-c2cccc(-c3cccc(F)c3)c2)cc1F` [Compound 350] and `NS(=O)(=O)c1ccc(Cc2c(C3CC3)nn(-c3nc(C(=O)O)cs3)c2-c2cccc(-c3cccc(F)c3)c2)c(F)c1` [Compound 358] fall in the same range of IC50: 1000 to 57000 nM for the first, 1000 to 57000 nM for the second.

`NS(=O)(=O)c1ccc(Cc2c(-c3cccc(-c4cccc(F)c4)c3)nn(-c3nc(C(=O)O)cs3)c2C2CC2)cc1F` [Compound 351] and `COc1cccc(-c2cccc(-c3nn(-c4nc(C(=O)O)cs4)c(C4CC4)c3Cc3ccc(S(N)(=O)=O)c(F)c3)c2)c1` [Compound 353] cannot be ordered by IC50: < 100 nM for the first, < 100 nM for the second.

`Cc1ccc(-c2cccc(-c3c(Cc4ccc(S(N)(=O)=O)cc4F)c(C4CC4)nn3-c3nc(C(=O)O)cs3)c2)cc1` [Compound 354] and `NS(=O)(=O)c1ccc(Cc2c(C3CC3)nn(-c3nc(C(=O)O)cs3)c2-c2cccc(-c3ccc(F)cc3)c2)c(F)c1` [Compound 356] fall in the same range of IC50: 1000 to 57000 nM for the first, 1000 to 57000 nM for the second.

`Cc1ccc(-c2cccc(-c3nn(-c4nc(C(=O)O)cs4)c(C4CC4)c3Cc3ccc(S(N)(=O)=O)cc3F)c2)cc1` [Compound 355] and `NS(=O)(=O)c1ccc(Cc2c(-c3cccc(-c4ccc(F)cc4)c3)nn(-c3nc(C(=O)O)cs3)c2C2CC2)c(F)c1` [Compound 357] cannot be ordered by IC50: < 100 nM for the first, < 100 nM for the second.

`NS(=O)(=O)c1ccc(Cc2c(-c3cccc(-c4cccc(F)c4)c3)nn(-c3nc(C(=O)O)cs3)c2C2CC2)c(F)c1` [Compound 359] and `COc1cccc(-c2cccc(-c3nn(-c4nc(C(=O)O)cs4)c(C4CC4)c3Cc3ccc(S(N)(=O)=O)cc3F)c2)c1` [Compound 361] cannot be ordered by IC50: < 100 nM for the first, < 100 nM for the second.

First: COc1cccc(-c2cccc(-c3c(Cc4ccc(S(N)(=O)=O)cc4F)c(C4CC4)nn3-c3nc(C(=O)O)cs3)c2)c1 [Compound 360]
Second: COc1cccc(-c2cc(-c3nn(-c4nc(C(=O)O)cs4)cc3Cc3ccc(S(N)(=O)=O)cc3)ccc2F)c1 [Compound 456, 2-(3-(6-fluoro-3′-methoxy-[1,1′-biphenyl]-3-yl)-4-(4-sulfamoylbenzyl)-1H-pyrazol-1-yl)thiazole-4-carboxylic acid]
The IC50 of the first is higher: 1000 to 57000 nM for the first, < 100 nM for the second.

`NS(=O)(=O)c1ccc(Cc2c(-c3cccc(N4CCC(C(F)(F)F)CC4)c3)nn(-c3nc(C(=O)O)cs3)c2CC2CC2)cc1F` [Compound 392] and `C/C=C(\C)c1cc(-c2nn(-c3nc(C(=O)O)cs3)c(CC3CC3)c2Cc2ccc(S(N)(=O)=O)c(F)c2)ccc1F` [Compound 450] cannot be ordered by IC50: < 100 nM for the first, < 100 nM for the second.

`COc1ccc(-c2cc(O)n(-c3nc(C(=O)O)cs3)n2)cc1` [Compound 424] and `O=C(O)c1csc(-n2nc(-c3ccc(F)cc3)cc2O)n1` [Compound 425] cannot be ordered by IC50: > 57000 nM for the first, > 57000 nM for the second.

First: O=C(O)c1csc(-n2nc(-c3ccc(Cl)cc3)cc2C(F)(F)F)n1 [Compound 427]
Second: COc1c(Cc2ccc(S(N)(=O)=O)cc2)c(-c2ccc(F)c(F)c2)nn1-c1nc(C(=O)O)cs1 [Compound 455, 2-(3-(3,4-difluorophenyl)-5-methoxy-4-(4-sulfamoylbenzyl)-1H-pyrazol-1-yl)thiazole-4-carboxylic acid]
The IC50 of the first is higher: 1000 to 57000 nM for the first, 100 to 1000 nM for the second.

`Cc1oc(=O)oc1COC(=O)c1csc(-n2nc(-c3ccc(F)c(C#CC4CCCC4)c3)c(Cc3ccc(S(N)(=O)=O)c(F)c3)c2CC2CC2)n1` [Compound 441] and `CCOC(=O)c1csc(-n2nc(-c3ccc(F)c(C#Cc4ccc(C)s4)c3)c(Cc3ccc(S(N)(=O)=O)c(F)c3)c2CC2CC2)n1` [Compound 447] cannot be ordered by IC50: > 57000 nM for the first, > 57000 nM for the second.

`CC(C)(C)/C=C/c1cc(-c2nn(-c3nc(C(=O)O)cs3)c(CC3CC3)c2Cc2ccc([S+](N)(=O)[O-])c(F)c2)ccc1F` [Compound 448] and `Cc1ccc(C#Cc2cccc(-c3nn(-c4nc(C(=O)O)cs4)c(CC4CC4)c3Cc3ccc(S(N)(=O)=O)c(F)c3)c2)s1` [Compound 449] cannot be ordered by IC50: < 100 nM for the first, < 100 nM for the second.

`NS(=O)(=O)c1ccc(Cc2c(-c3cccc4ccccc34)nn(-c3nc(C(=O)O)cs3)c2O)cc1` [Compound 451] and `NS(=O)(=O)c1ccc(Cc2c(-c3cccc4cc(F)ccc34)nn(-c3nc(C(=O)O)cs3)c2O)cc1` [Compound 454, 2-(3-(6-fluoronaphthalen-1-(57%)yl)-5-hydroxy-4-(4-sulfamoylbenzyl)-1H-pyrazol-1-yl)thiazole-4-carboxylic acid] fall in the same range of IC50: 1000 to 57000 nM for the first, 1000 to 57000 nM for the second.

First: NS(=O)(=O)c1ccc(Cc2c(-c3cccnc3)nn(-c3nc(C(=O)O)cs3)c2O)cc1 [Compound 453, 2-(5-hydroxy-3-(pyridin-3-yl)-4-(4-sulfamoylbenzyl)-1H-pyrazol-1-yl)thiazole-4-carboxylic acid]
Second: NS(=O)(=O)c1ccc(Cc2cnn(-c3nc(C(=O)O)cs3)c2-c2cccnc2)cc1 [Compound 475, 2-(5-(pyridin-3-yl)-4-(4-sulfamoylbenzyl)-1H-pyrazol-1-yl)thiazole-4-carboxylic acid]
The IC50 of the first is higher: 1000 to 57000 nM for the first, 100 to 1000 nM for the second. The second is the more potent here.

`NS(=O)(=O)c1ccc(Cc2cn(-c3nc(C(=O)O)cs3)nc2-c2ccc(F)c(-c3cccc(Cl)c3)c2)cc1` [Compound 457, 2-(3-(3′-chloro-6-fluoro-[1,1′-biphenyl]-3-yl)-4-(4-sulfamoylbenzyl)-1H-pyrazol-1-yl)thiazole-4-carboxylic acid] and `Cc1ccc(-c2cc(-c3nn(-c4nc(C(=O)O)cs4)cc3Cc3ccc(S(N)(=O)=O)cc3)ccc2F)cc1` [Compound 476, 2-(3-(6-fluoro-4′-methyl-[1,1′-biphenyl]-3-yl)-4-(4-sulfamoylbenzyl)-1H-pyrazol-1-yl)thiazole-4-carboxylic acid] cannot be ordered by IC50: < 100 nM for the first, < 100 nM for the second.

`CC(C)Oc1cccc(-c2nn(-c3nc(C(=O)O)cs3)cc2Cc2ccc(S(N)(=O)=O)cc2)c1` [Compound 459, 2-(3-(3-isopropoxyphenyl)-4-(4-sulfamoylbenzyl)-1H-pyrazol-1-yl)thiazole-4-carboxylic acid] and `NS(=O)(=O)c1ccc(Cc2cn(-c3nc(C(=O)O)cs3)nc2-c2cccc(OC3CCCC3)c2)cc1` [Compound 460, 2-(3-(3-(cyclopentyloxy)phenyl)-4-(4-sulfamoylbenzyl)-1H-pyrazol-1-yl)thiazole-4-carboxylic acid] cannot be ordered by IC50: < 100 nM for the first, < 100 nM for the second.

`NS(=O)(=O)c1ccc(Cc2cn(-c3nc(C(=O)O)cs3)nc2-c2cccc(OCC3CCOC3)c2)cc1` (stereo not drawn) [Compound 461, 2-(4-(4-sulfamoylbenzyl)-3-(3-((tetrahydrofuran-3-yl)methoxy)phenyl)-1H-pyrazol-1-yl)thiazole-4-carboxylic acid] and `NS(=O)(=O)c1ccc(Cc2cn(-c3nc(C(=O)O)cs3)nc2-c2cccc(OCC3CCCO3)c2)cc1` (stereo not drawn) [Compound 463, 2-(4-(4-sulfamoylbenzyl)-3-(3-((tetrahydrofuran-2-yl)methoxy)phenyl)-1H-pyrazol-1-yl)thiazole-4-carboxylic acid] cannot be ordered by IC50: < 100 nM for the first, < 100 nM for the second.

`COc1cccc(COc2cccc(-c3nn(-c4nc(C(=O)O)cs4)cc3Cc3ccc(S(N)(=O)=O)cc3)c2)c1` [Compound 462, 2-(3-(3-((3-methoxybenzyl)oxy)phenyl)-4-(4-sulfamoylbenzyl)-1H-pyrazol-1-yl)thiazole-4-carboxylic acid] and `NS(=O)(=O)c1ccc(Cc2cn(-c3nc(C(=O)O)cs3)nc2-c2cccc(Oc3ccccc3)c2)cc1` [Compound 464, 2-(3-(3-phenoxyphenyl)-4-(4-sulfamoylbenzyl)-1H-pyrazol-1-yl)thiazole-4-carboxylic acid] cannot be ordered by IC50: < 100 nM for the first, < 100 nM for the second.

`NS(=O)(=O)c1ccc(Cc2cnn(-c3nc(C(=O)O)cs3)c2-c2ccc3ccccc3c2)cc1` [Compound 474, 2-(5-(naphthalen-2-yl)-4-(4-sulfamoylbenzyl)-1H-pyrazol-1-yl)thiazole-4-carboxylic acid] and `NS(=O)(=O)c1ccc(Cc2c(-c3ccc(F)c(-c4ccc(F)cc4)c3)nn(-c3nc(C(=O)O)cs3)c2C2CC2)cc1` [Compound 482, 2-(5-cyclopropyl-3-(4′,6-difluoro-[1,1′-biphenyl]-3-yl)-4-(4-sulfamoylbenzyl)-1H-pyrazol-1-yl)thiazole-4-carboxylic acid] cannot be ordered by IC50: < 100 nM for the first, < 100 nM for the second.
